Numbers after ± are expanded uncertainties.
Details: Liquid, Closed cell (Static) method

CCCCOCCO [2-butoxyethan-1-ol]
vapor or sublimation pressure (441.3 K): 93.9 ± 0.8 kPa | vapor or sublimation pressure (441.5 K): 93.6 ± 0.8 kPa | vapor or sublimation pressure (442.1 K): 94.1 ± 0.8 kPa

CCCCOCCOC(C)=O [2-butoxyethyl acetate]
vapor or sublimation pressure (463 K): 93.7 ± 0.8 kPa | vapor or sublimation pressure (463.3 K): 93.6 ± 0.8 kPa | vapor or sublimation pressure (464.2 K): 93.9 ± 0.8 kPa

CCOCCO [2-ethoxyethan-1-ol]
vapor or sublimation pressure (406.2 K): 93.3 ± 0.8 kPa | vapor or sublimation pressure (406.9 K): 93.3 ± 0.8 kPa | vapor or sublimation pressure (407.8 K): 93.6 ± 0.8 kPa

CCOCCOC(C)=O [2-ethoxyethyl ethanoate]
vapor or sublimation pressure (427.8 K): 93.3 ± 0.8 kPa | vapor or sublimation pressure (428.3 K): 93.7 ± 0.8 kPa | vapor or sublimation pressure (428.6 K): 93.3 ± 0.8 kPa

From the NIST ThermoML archive (doi:10.1021/je200565u)
